Columns and labels:
[1] = system: Cos-7; experiment: MTT screening assay, Cos-7 non-cancer cells; assay type: cell-based, monkey; conditions: Primates, 72 h incubation
Description: (§1) The ability of newly synthesized indole phytoalexins to suppress cell proliferation was screened in vitro on eight cancer cell lines including human colorectal carcinoma (Caco-2 and HCT116), human cervical cancer (HeLa), human breast adenocarcinoma (MCF-7, MDA-MB-231), human alveolar adenocarcinoma (A549) and human leukemic T cell lymphoma (Jurkat), and two non-cancer cell lines (MCF-10A, Cos-7).
(§2) The cell lines used for this study were Caco-2 (human colorectal adenocarcinoma cell line, American Type Culture Collection, Manassas, VA, USA (ATCC)), HCT116 (human colorectal carcinoma cells European Collection of Authenticated Cell Cultures, Salisbury, UK (ECACC)), HeLa (human cervical tumor cells, ECACC), MCF-7 (human breast tumor cells, ECACC), MDA-MB-231 (human breast tumor cells, ATCC), A549 (human lung carcinoma cells, ATCC), BLM (human melanoma lung metastases, a gift from prof. K. Smetana, Institute of Anatomy, Charles University in Prague), Jurkat (human leukemia cell line, ECACC), Cos-7 (immortalized monkey kidney fibroblasts, ATCC) and MCF-10A (human mammary epithelial cells, ATCC). Caco-2, MCF-7, BLM, Cos-7 and A549 cells were cultured in Dulbecco’s Modified Eagle’s Medium (DMEM) with high glucose and sodium pyruvate (GE Healthcare, Piscataway, NJ, USA); HCT116 lines, HeLa, MDA-MB-231 and Jurkat were cultured in RPMI-1640 medium; and MCF10A cells were cultured in high glucose DMEM/F12 (Dulbecco’s Modified Eagle’s Medium F12). The media were enriched with 10% fetal bovine serum (FBS) and a 1% solution of a mixture of antibiotics and antimycotics 1× HyClone™ (GE Healthcare, Chicago, IL, USA). DMEM/F12 medium was supplemented with epidermal growth factor (EGF) (20 ng/mL final), hydrocortisone (0.5 μg/mL final) and insulin (10 μg/mL final) (Sigma-Aldrich Chemie, Steinheim, Germany). The cells were placed in an incubator at 37 °C with humidified air containing 5% CO2.
(§3) The MTT assay is a colorimetric method used to quantify the metabolic activity of cells. MTT (3-(4,5-di-methylthiazol-2-yl)2,5-diphenyltetrazolium bromide) (Sigma-Aldrich Chemie, Steinheim, Germany) is reduced by oxidoreductases in the cytosol of cells to light-absorbing formazan, the presence of which can be measured spectrophotometrically and determines the half-maximal inhibitory concentration (IC50). A549 cells were seeded in […] culture plates at a density of 5 × 10^3 per well. […]
(§4) We also incubated the cells with chloroquine at concentrations of 5–20 µM, which was added 1 h before the addition of the test substance, and cisplatin at concentrations of 3–10 µM. […] After 24 h, the absorbance was measured at a wavelength of 540 nm using an automated Cytation™ 3 Cell Imaging Multi-Mode Reader (Biotek, Winooski, VT, USA). […]

[2] = system: glutathione reductase (GR); experiment: GR activity in treated A549 cells; assay type: cell-based, human; conditions: A549, 20 µM
Description: (§5) Glutathione is an important intracellular molecule involved in carcinogen detoxification. On the other hand, its elevated state in cancer cells is often associated with resistance to chemotherapy. […] Because high levels of GSH are associated with cancer cell resistance, the GHS-depleting effect of compound 49 could be interesting due to new cancer chemosensitizer development. In the case of GST and GR, we hypothesize that an increase in the activity of both enzymes may be a compensatory mechanism induced by GSH depletion.
(§6) Both floating and adherent A549 cells were harvested at 24, 48, and 72 h after treatment with compound 49 (20 µM). SOD determination kit, Glutathione Peroxidase Cellular Activity Assay kit, Glutathione Reductase Assay Kit and Glutathione-S-transferase (GST) Assay Kit (all Sigma Aldrich, Germany) were used for the detection of relevant enzyme activity. Reduced glutathione (GSH) content was measured by the method originally described by Floreani et al.. Assays were performed on an M 501 single beam UV/VIS spectrophotometer (Spectronic Camspec Ltd., Leeds, United Kingdom). All measured parameters were calculated per milligram or gram of protein determined using the bicinchoninic acid assay.

[3] = system: MCF-7; experiment: MTT screening assay, MCF-7; assay type: cell-based; conditions: Homo sapiens, MCF7, 72 h incubation
Description: as §1, §2, §3, §4

[4] = system: MDA-MB-231; experiment: MTT screening assay, MDA-MB-231; assay type: cell-based; conditions: Homo sapiens, 72 h incubation
Description: as §1, §2, §3, §4

[5] = system: glutathione (GSH); experiment: GSH content in treated A549 cells; assay type: cell-based, human; conditions: A549, 20 µM
Description: as §5, §6

[6] = system: MCF10A; experiment: MTT screening assay, MCF10A non-cancer cells; assay type: cell-based, human
Description: as §1, §2
The MTT assay is a colorimetric method used to quantify the metabolic activity of cells. MTT (3-(4,5-di-methylthiazol-2-yl)2,5-diphenyltetrazolium bromide) (Sigma-Aldrich Chemie, Steinheim, Germany) is reduced by oxidoreductases in the cytosol of cells to light-absorbing formazan, the presence of which can be measured spectrophotometrically and determines the half-maximal inhibitory concentration (IC50). A549 cells were seeded in […] culture plates at a density of 5 × 10^3 per well. After 24 h of cultivation, the tested substance 49 was added in concentrations of 10, 50 and 100 µM.
We also incubated the cells with chloroquine at concentrations of 5–20 µM, which was added 1 h before the addition of the test substance, and cisplatin at concentrations of 3–10 µM. Cisplatin was added 24 h after the addition of 49. After 72 h of incubation, 10 µL of MTT (5 mg/mL) was added to each well. After 4 h, formazan crystals formed in the wells, which were dissolved in 100 uL of 10% SDS (sodium dodecyl sulfate). After 24 h, the absorbance was measured at a wavelength of 540 nm using an automated Cytation™ 3 Cell Imaging Multi-Mode Reader (Biotek, Winooski, VT, USA). These experiments were performed in three independent replicates.

[7] = system: HCT116; experiment: MTT screening assay, HCT116; assay type: cell-based; conditions: Homo sapiens, HCT-116, 72 h incubation
Description: as §1, §2, §3, §4

[8] = system: superoxide dismutase (SOD); experiment: SOD activity in treated A549 cells; assay type: cell-based, human; conditions: A549, 20 µM
Description: as §5, §6

## CC(C)(C)OC(=O)n1cc(CNC(=O)Nc2ccc(NC(=O)NCc3cn(C(=O)OC(C)(C)C)c4ccccc34)cc2)c2ccccc21 [Compound 49, N,N′-(1,4-phenylene)bis{N′-[1-(tert-butoxycarbonyl)indol-3-yl]methyl (urea)}]
[1]
  IC50: > 100 µM
[2]; 24 h
  GR: 8.200 ± 2.97 μkat/mg Prot
[2]; 48 h
  GR: 11.270 ± 1.04 μkat/mg Prot
[2]; 72 h
  GR: 10.100 ± 2.89 μkat/mg Prot
[3]
  IC50: > 100 µM
[4]
  IC50: > 100 µM
[5]; 24 h
  GSH: 0.395 ± 0.043 nmol/mg Prot
[5]; 48 h
  GSH: 0.107 ± 0.015 nmol/mg Prot
[5]; 72 h
  GSH: 0.228 ± 0.062 nmol/mg Prot
[6]; Homo sapiens, MCF-10A, 72 h incubation, MTT, non-cancer cells
  IC50: 55.1 ± 4.1 µM
[6]; IC50 MCF10A / IC50 A549
  Selectivity index—A549 cells vs. non-cancer cells (MCF10A): 6.3
[7]
  IC50: 8.8 ± 0.6 µM
[8]; 24 h
  SOD: 0.408 ± 0.24 μkat/mg Prot
[8]; 48 h
  SOD: 0.526 ± 0.27 μkat/mg Prot
[8]; 72 h
  SOD: 0.523 ± 0.38 μkat/mg Prot

— article PMC9822133, “Design, Synthesis and Antiproliferative Evaluation of Bis-Indole Derivatives with a Phenyl Linker: Focus on Autophagy” (Molecules, 2022)
